The values that follow are results of earlier work, collected in patent US7198895B2, “In vitro cell-based methods for biological validation and pharmacological screening of chemical entities and biologicals” (priority 2000, dated 2007).

The conditions of series [1]: treated subjects.
In series [2] the test system is HepG2 cells. The following applies: HepG2 cells exposed to cis-platinum; ref (17).

Structures are written as SMILES.

Consider `CCNC(C)Cc1cccc(C(F)(F)F)c1` (stereo not drawn) [Fenfluramine], for which, in series [1], the life-threatening adverse event result is reported as “valvular fibrosis”.

`N.N.[Cl][Pt][Cl]` [cis-platinum]: in series [2], the “number of genes consistently differentially expressed” value is given as 14 genes and the “number of genes differentially expressed” value was at least 200 genes.
